Results taken from patent US20110269625A1, “Synergistic insecticidal mixtures” (Bayer CropScience AG, priority 2008, published 2011).

Key:
Format in all cases: in vivo
[1] = system: green peach aphid (Myzus persicae); test: Myzus persicae test (spray treatment of infested cabbage leaves)
From the text: (§1) The expected action for a given combination of two active ingredients can be calculated according to S. R. Colby, Weeds 15 (1967), 20-22) as follows:
(§2) • X is the kill rate, expressed in % of the untreated control, using the active ingredient A at an application rate of m g/ha or in a concentration of m ppm, • Y is the kill rate, expressed in % of the untreated control, using the active ingredient B at an application rate of n g/ha or in a concentration of n ppm, • E is the kill rate, expressed in % of the untreated control, using the active ingredients A and B at application rates of m and n g/ha or in a concentration of m and n ppm, then is
(§3) If the actual insecticidal kill rate is greater than that calculated, the kill rate of the combination is superadditive, i.e. there is a synergistic effect. In this case, the actually observed kill rate must be greater than the value calculated from the above formula for the expected kill rate (E).
Solvent: 7 parts by weight of dimethylformamide Emulsifier: 2 parts by weight of alkylaryl polyglycol ether
(§4) To produce an appropriate active ingredient formulation, 1 part by weight of active ingredient is mixed with the stated amounts of solvent and emulsifier, and the concentrate is diluted with emulsifier-containing water to the desired concentration.
Cabbage leaves (Brassica oleracea) severely infested by the green peach aphid (Myzus persicae) are treated by spraying with the active ingredient formulation in the desired concentration.
(§5) After the desired time, the kill rate in % is determined 100% means that all of the aphids have been killed; 0% means that none of the aphids have been killed. The kill rates determined are entered into Colby's formula.

[2] = system: larvae of the mustard beetle (Phaedon cochleariae); test: Phaedon cochleariae larvae test (sprayed cabbage leaves populated with larvae); settings: 4 ppm, spray
From the text: as §1, §2, §3
Solvent: 7 parts by weight of dimethylformamide Emulsifier: 2 parts by weight of alkyl aryl polyglycol ether
as §4
Cabbage leaves (Brassica oleracea) are treated by spraying with the active ingredient formulation of the desired concentration and populated with larvae of the mustard beetle (Phaedon cochleariae) while the leaves are still moist.
After the desired time, the kill rate in % is determined 100% means that all beetle larvae have been killed; 0% means that none of the beetle larvae have been killed. The kill rates determined are entered into Colby's formula.

[3] = system: cotton aphid (Aphis gossypii); test: Aphis gossypii test (spray treatment of infested cotton plants)
From the text: as §1, §2, §3
Solvent: 7 parts by weight of dimethylformamide Emulsifier: 2 parts by weight of alkylaryl polyglycol ether […]
as §5

SMILES	Kill rate in % after 1 d ([1]; 0.8 ppm)	Kill rate in % after 6 days [2]	Kill rate in % after 6 days ([3]; 0.8 ppm)	Kill rate in % after 6 days ([1]; 0.8 ppm)	Kill rate in % after 1 d ([1]; 0.16 ppm)	Kill rate in % after 6 days ([3]; 0.16 ppm)
N#C/N=C1\SCCN1Cc1ccc(Cl)nc1 [thiacloprid]	25%	0%	25%			
C/C(=N\C#N)N(C)Cc1ccc(Cl)nc1 [acetamiprid]		0%		0%		
CC1(C)[C@H](C=C(Cl)Cl)[C@H]1C(=O)OCc1c(F)c(F)cc(F)c1F [transfluthrin]		0%		0%	0%	0%
